The supplement of paper PMC12463676, “Small-molecule dissolution of stress granules by redox modulation benefits ALS models” (Nature Chemical Biology, 2025)

How the values were obtained:
lipoamide = compound: NC(=O)CCCCC1CCSS1 [lipoamide]; experiment: thermal stability z-score vs DMSO; higher = more thermally stabilized by treatment; conditions: HeLa, lipoamide concentration 100 µM
Procedure: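 Cellular thermal proteome profiling in HeLa cells. Cells were treated with 100 µM lipoamide for 1 h, with or without 1 mM arsenate for a further 1 h, then heated to ten temperatures (37-66.3 °C), and soluble protein was quantified by TMT mass spectrometry relative to 0.1% DMSO controls. The thermal stability score (sum of log2 fold changes minus the abundance score) was transformed to a z-score; mean of n = 3 experiments.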

potassium arsenate = compound: O=[As]([O-])(O)O.[K+] [potassium arsenate]; experiment: as above; conditions: HeLa; arsenate concentration 1 mM
Procedure: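 Cellular thermal proteome profiling in HeLa cells treated with 1 mM arsenate for 1 h (DMSO pretreatment), heated to ten temperatures (37-66.3 °C). Soluble protein was quantified by TMT mass spectrometry relative to DMSO controls; the thermal stability score was transformed to a z-score; mean of n = 3 experiments.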

[1] = arsenate co-treatment: 1 mM arsenate 1 h
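Further: each temperature applied for 3 min, abundance score taken as mean log2 fold change at the two lowest temperatures, z-score obtained by mean subtraction and division by SD.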

Chain of UniProt Q9HB71 (Q9HB71 whole entry): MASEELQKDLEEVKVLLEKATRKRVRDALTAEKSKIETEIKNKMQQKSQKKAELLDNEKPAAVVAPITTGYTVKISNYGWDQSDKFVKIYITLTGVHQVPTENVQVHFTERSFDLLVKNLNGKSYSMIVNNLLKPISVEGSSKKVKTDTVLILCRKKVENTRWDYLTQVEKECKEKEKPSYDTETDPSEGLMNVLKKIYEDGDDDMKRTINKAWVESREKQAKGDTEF
Chain of UniProt P00519 (P00519 whole entry): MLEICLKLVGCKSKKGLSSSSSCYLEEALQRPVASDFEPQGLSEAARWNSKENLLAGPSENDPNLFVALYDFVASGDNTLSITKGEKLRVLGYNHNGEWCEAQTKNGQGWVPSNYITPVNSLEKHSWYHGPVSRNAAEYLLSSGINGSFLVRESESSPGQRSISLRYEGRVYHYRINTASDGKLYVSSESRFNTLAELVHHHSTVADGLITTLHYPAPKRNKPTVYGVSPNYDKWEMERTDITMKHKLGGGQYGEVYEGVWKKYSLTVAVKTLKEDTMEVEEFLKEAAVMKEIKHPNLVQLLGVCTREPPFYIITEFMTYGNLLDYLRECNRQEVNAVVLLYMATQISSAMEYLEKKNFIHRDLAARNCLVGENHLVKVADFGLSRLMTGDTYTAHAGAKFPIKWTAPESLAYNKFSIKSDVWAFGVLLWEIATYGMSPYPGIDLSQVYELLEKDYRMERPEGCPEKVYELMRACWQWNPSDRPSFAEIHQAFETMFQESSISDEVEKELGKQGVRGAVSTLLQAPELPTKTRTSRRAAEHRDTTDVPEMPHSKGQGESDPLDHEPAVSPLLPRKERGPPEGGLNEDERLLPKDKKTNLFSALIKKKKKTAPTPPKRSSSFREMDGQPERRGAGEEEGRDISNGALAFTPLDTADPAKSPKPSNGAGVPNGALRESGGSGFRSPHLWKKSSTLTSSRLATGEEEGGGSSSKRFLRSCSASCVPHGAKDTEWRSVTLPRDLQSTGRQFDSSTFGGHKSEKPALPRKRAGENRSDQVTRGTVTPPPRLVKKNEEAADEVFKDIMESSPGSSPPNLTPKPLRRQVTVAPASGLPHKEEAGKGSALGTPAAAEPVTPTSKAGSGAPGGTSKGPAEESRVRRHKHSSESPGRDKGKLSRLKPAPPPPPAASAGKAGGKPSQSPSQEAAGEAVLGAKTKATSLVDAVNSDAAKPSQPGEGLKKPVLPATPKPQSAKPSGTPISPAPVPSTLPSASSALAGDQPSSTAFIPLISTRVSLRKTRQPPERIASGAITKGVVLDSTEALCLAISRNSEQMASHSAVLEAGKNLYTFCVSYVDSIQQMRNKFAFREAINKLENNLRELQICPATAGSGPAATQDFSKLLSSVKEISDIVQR
Chain of UniProt Q9UK73 (Q9UK73 whole entry): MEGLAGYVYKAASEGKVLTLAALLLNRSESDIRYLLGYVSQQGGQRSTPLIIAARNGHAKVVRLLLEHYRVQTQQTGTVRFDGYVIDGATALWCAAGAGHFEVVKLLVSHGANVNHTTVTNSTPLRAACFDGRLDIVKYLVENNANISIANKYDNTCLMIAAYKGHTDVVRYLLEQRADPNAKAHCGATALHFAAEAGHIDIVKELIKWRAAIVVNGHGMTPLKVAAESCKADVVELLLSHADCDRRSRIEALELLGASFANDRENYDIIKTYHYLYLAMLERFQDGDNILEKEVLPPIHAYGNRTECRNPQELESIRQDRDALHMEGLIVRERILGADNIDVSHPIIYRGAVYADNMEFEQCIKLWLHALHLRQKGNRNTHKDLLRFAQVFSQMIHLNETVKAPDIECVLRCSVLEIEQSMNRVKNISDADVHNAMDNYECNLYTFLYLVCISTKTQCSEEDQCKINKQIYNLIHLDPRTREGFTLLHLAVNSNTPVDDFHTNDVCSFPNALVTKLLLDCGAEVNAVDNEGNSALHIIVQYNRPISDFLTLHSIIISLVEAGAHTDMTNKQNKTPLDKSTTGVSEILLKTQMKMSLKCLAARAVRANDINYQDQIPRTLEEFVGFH
Chain of UniProt Q9UBS8 (Q9UBS8 whole entry): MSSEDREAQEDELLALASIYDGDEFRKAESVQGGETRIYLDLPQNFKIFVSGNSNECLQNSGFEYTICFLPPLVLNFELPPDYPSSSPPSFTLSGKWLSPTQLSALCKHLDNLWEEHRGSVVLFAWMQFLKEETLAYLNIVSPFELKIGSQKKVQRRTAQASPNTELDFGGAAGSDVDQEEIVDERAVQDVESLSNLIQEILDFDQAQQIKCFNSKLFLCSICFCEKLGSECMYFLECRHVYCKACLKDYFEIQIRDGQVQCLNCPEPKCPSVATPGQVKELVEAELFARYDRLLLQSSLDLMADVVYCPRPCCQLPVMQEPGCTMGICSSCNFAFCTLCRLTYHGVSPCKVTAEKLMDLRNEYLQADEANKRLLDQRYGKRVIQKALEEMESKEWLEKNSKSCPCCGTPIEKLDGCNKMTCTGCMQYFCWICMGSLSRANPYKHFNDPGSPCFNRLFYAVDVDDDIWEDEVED
Chain of UniProt Q9BYX2 (Q9BYX2 whole entry): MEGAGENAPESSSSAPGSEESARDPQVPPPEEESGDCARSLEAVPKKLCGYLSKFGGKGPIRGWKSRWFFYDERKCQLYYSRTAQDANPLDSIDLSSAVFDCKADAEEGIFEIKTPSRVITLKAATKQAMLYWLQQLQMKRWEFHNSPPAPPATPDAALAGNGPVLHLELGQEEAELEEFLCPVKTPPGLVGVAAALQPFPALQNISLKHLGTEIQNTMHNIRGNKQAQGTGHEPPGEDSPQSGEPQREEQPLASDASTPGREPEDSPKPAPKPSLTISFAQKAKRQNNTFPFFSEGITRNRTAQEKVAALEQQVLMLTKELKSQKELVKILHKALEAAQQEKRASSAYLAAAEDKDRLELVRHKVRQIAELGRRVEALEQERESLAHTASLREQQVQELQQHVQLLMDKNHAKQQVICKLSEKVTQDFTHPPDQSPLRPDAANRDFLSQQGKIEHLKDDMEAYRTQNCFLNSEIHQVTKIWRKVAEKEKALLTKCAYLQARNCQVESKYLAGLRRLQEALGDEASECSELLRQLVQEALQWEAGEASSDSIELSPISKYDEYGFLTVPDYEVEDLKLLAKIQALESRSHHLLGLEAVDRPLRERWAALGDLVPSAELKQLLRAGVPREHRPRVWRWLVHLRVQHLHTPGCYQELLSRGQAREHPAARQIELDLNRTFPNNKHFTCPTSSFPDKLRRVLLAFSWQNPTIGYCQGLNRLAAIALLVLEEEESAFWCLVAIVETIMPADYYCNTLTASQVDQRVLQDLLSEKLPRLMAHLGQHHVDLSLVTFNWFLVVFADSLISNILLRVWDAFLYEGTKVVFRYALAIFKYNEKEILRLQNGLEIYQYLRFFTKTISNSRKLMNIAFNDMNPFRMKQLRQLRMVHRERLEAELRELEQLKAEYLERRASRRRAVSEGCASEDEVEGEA
Chain of UniProt Q8NC96 (Q8NC96 whole entry): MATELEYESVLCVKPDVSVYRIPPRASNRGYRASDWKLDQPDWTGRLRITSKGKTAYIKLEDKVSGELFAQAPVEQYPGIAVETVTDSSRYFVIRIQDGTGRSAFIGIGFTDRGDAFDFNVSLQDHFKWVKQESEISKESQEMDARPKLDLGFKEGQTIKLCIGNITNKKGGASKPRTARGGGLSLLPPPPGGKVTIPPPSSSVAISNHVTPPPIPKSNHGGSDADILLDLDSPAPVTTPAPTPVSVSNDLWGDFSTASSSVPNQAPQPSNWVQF
Chain of UniProt P11182 (P11182 whole entry): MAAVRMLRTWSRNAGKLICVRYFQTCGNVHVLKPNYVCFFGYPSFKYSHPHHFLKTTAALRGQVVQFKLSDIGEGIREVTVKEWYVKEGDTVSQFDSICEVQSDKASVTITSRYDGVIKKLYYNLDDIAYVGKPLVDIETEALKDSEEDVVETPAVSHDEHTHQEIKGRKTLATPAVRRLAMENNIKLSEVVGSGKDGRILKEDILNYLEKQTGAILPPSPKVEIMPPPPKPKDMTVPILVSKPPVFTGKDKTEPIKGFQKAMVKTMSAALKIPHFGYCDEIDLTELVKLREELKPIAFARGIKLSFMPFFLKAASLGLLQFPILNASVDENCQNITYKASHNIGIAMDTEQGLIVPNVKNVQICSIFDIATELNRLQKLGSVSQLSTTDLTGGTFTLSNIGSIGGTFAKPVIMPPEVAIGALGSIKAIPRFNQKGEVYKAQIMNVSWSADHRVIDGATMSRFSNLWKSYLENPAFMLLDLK
Chain of UniProt Q6IA69 (Q6IA69 whole entry): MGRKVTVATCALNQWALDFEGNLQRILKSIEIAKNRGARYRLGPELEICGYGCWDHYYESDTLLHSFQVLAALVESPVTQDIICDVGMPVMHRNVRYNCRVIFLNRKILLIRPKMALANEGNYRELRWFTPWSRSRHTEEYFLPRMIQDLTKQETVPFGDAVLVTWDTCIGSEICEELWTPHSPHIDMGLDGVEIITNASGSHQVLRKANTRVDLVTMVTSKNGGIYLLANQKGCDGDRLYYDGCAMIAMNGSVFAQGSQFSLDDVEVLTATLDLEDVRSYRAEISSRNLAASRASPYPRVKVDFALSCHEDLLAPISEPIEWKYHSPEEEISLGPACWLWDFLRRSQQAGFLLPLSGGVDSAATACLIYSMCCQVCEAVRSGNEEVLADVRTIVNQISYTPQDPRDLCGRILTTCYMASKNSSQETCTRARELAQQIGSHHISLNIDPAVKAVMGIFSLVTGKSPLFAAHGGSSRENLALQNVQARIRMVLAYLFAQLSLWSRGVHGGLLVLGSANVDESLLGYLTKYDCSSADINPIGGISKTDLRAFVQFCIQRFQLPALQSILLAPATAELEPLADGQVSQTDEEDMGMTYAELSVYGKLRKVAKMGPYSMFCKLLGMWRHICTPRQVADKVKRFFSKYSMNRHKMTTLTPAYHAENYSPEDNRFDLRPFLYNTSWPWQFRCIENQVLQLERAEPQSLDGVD

| Target | thermal stability z-score (lipoamide; [1]) | thermal stability z-score (lipoamide; arsenate co-treatment: none) | thermal stability z-score (potassium arsenate) |
| --- | --- | --- | --- |
| RNF14 (UniProt Q9UBS8) | -1.18 | 0.11 | 0.158 |
| UNC13D (UniProt Q70J99) | -0.15 | -0.154 | -0.283 |
| GINS1 (UniProt Q14691) | -0.512 | -0.399 | -0.404 |
| HNRNPC (UniProt P07910) | 2.24 | 1.04 | 0.94 |
| MRPS24 (UniProt Q96EL2) | -0.239 | -0.0199 | -0.497 |
| NADSYN1 (UniProt Q6IA69) | 0.995 | 0.788 | -0.0415 |
| PRPF6 (UniProt O94906) | -0.136 | -0.0563 | -0.171 |
| GAK (UniProt O14976) | 0.338 | -0.0197 | 0.475 |
| DNAJB14 (UniProt Q8TBM8) | 0.0418 | 0.157 | -0.17 |
| FEM1B (UniProt Q9UK73) | 0.128 | 0.146 | -1.27 |
| CAMSAP1 (UniProt Q5T5Y3) | 0.0305 | -0.371 | -0.293 |
| NAA40 (UniProt Q86UY6) | -0.126 | 0.2 | 0.0387 |
| ARHGAP21 (UniProt Q5T5U3) | -0.57 | -0.749 | -1.3 |
| DBT (UniProt P11182) | -0.65 | -0.0292 | -1.75 |
| TBC1D2 (UniProt Q9BYX2) | -0.151 | 0.0824 | 0.225 |
| CHCHD3 (UniProt Q9NX63) | 0.334 | 0.581 | 0.417 |
| CYB5R1 (UniProt Q9UHQ9) | 1.47 | 0.244 | -2.32 |
| AGPAT2 (UniProt O15120) | -0.401 | 0.198 | 0.392 |
| ERI3 (UniProt O43414) | 0.468 | 0.154 | 0.102 |
| AP5Z1 (UniProt O43299) | 0.0372 | 0.822 | 0.502 |
| SLC18B1 (UniProt Q6NT16) | -0.405 | -0.045 | -0.173 |
| POLR2D (UniProt O15514) | 1.21 | 0.628 | -0.735 |
| NECAP1 (UniProt Q8NC96) | 0.133 | 0.451 | -0.194 |
| MMAA (UniProt Q8IVH4) | 0.33 | -0.0208 | -1.04 |
| EXOSC2 (UniProt Q13868) | 0.567 | 0.234 | -0.593 |
| ALDH6A1 (UniProt Q02252) | -0.315 | 0.458 | 4.94 |
| POLR2L (UniProt P62875) | 1.27 | 0.782 | 0.335 |
| PPM1G (UniProt O15355) | 0.2 | 0.916 | -0.0978 |
| ABL1 (UniProt P00519) | -0.261 | -0.21 | 0.137 |
| CACYBP (UniProt Q9HB71) | 0.276 | 0.0201 | 0.37 |
